Columns and labels:
ECHCG (Barnyardgrass) = test: Preemergence herbicidal evaluation; format: in vivo, Echinochloa crus-galli; settings: rated 4-5 weeks after treatment; for ECHCG rating: preemergence, 0-9 scale
Summary of the method: (§1)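 Seeds were mixed with potting soil and planted on about one inch of soil, then sprayed with test compound in aqueous acetone at about 0.0156 to 0.500 kg per hectare. Plants grew under standard greenhouse care and were visually rated 0-9 against untreated controls 4-5 weeks post-treatment.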

[1] = tested on: GLXMAW (Soybean, Williams); test: Preemergence herbicidal evaluation; format: in vivo, Glycine max, (L.) Merr. cv Williams; settings: rated 4-5 weeks after treatment; for GLXMAW rating: preemergence, 0-9 scale
Summary of the method: as §1

GALAP (Galium) = test: Preemergence herbicidal evaluation; format: in vivo, Galium aparine; settings: rated 4-5 weeks after treatment; for GALAP rating: preemergence, 0-9 scale
Summary of the method: as §1

MOOVA (Monochoria) = test: Postemergence weed control under flooded paddy conditions; format: in vivo, Monochoria vaginalis; settings: postemergence weeds, rated 3 to 4 weeks after treatment
Summary of the method: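 With weeds 3 to 5 cm tall and rice at the 1.5 to 2.5 leaf stage, containers were flooded and water held 1.5 to 3 cm above soil. Compounds in 50/50 v/v aqueous/acetone went into the flood water at about 0.0313 to 0.500 kg/ha a.i. Effects were visually rated 0–9 against controls after three to four weeks in the greenhouse.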

[2] = tested on: IPOHE (Morningglory, Ivyleaf); test: Postemergence herbicidal evaluation; format: in vivo, Ipomoea hederacea; settings: postemergence
Summary of the method: (§2)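 Herbicidal effect was judged by eye on a 0–9 scale covering stand, vigor, deformity, size and chlorosis, compared with controls, four to five weeks after seedlings about two weeks old were sprayed (40 psi, ~0.0156–0.500 kg/ha).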

[3] = tested on: CHEAL (Lambsquarters, Common); test: Postemergence herbicidal evaluation; format: in vivo, Chenopodium album; settings: postemergence
Summary of the method: as §2

C#CCOC(=O)CC1SC(=Nc2cc(-n3c(=O)cc(C(F)(F)F)n(C)c3=O)c(F)cc2Cl)N(C)C1=O (stereo not shown) [Compound 90, 2-Propynyl 2-{{2-chloro-5-[3,6-dihydro-3-methyl-2,6-dioxo-4-(trifluoromethyl)-1(2H)-pyrimidinyl]-4-fluorophenyl}imino}-3-methyl-4-oxo-5-thiazolidineacetate]
ECHCG rating (ECHCG (Barnyardgrass); 0.0313 kg/ha): 0.0
ECHCG rating (ECHCG (Barnyardgrass); 0.0625 kg/ha): 0.0
ECHCG rating (ECHCG (Barnyardgrass); 0.1250 kg/ha): 0.0
ECHCG rating (ECHCG (Barnyardgrass); 0.2500 kg/ha): 3.0
GLXMAW rating ([1]; 0.0313 kg/ha): 0.0
GLXMAW rating ([1]; 0.0625 kg/ha): 2.0
GLXMAW rating ([1]; 0.1250 kg/ha): 7.0
GLXMAW rating ([1]; 0.2500 kg/ha): 9.0
GALAP rating (GALAP (Galium); 0.0313 kg/ha): 0.0
GALAP rating (GALAP (Galium); 0.0625 kg/ha): 0.0
GALAP rating (GALAP (Galium); 0.1250 kg/ha): 3.0
GALAP rating (GALAP (Galium); 0.2500 kg/ha): 7.0
Herbicidal rating MOOVA (MOOVA (Monochoria); Rate 0.0313 kg/ha): 9.0
Herbicidal rating MOOVA (MOOVA (Monochoria); Rate 0.0625 kg/ha): 9.0
Herbicidal rating MOOVA (MOOVA (Monochoria); Rate 0.1250 kg/ha): 9.0
Herbicidal rating MOOVA (MOOVA (Monochoria); Rate 0.2500 kg/ha): 9.0
IPOHE herbicidal rating ([2]; rate 0.0158 kg/ha): 9.0
IPOHE herbicidal rating ([2]; rate 0.0315 kg/ha): 9.0
IPOHE herbicidal rating ([2]; rate 0.0630 kg/ha): 9.0
CHEAL herbicidal rating ([3]; rate 0.0158 kg/ha): 5.0
CHEAL herbicidal rating ([3]; rate 0.0315 kg/ha): 7.0
CHEAL herbicidal rating ([3]; rate 0.0630 kg/ha): 9.0

CCOC(=O)CN1C(=O)C(CC(=O)Nc2ccccc2)SC1=Nc1cc(-n2c(=O)cc(C(F)(F)F)n(C)c2=O)c(F)cc1Cl (stereo not shown) [Compound 68, Ethyl 2-{{2-chloro-5-[3,6-dihydro-3-methyl-2,6-dioxo-4-(trifluoromethyl)-1(2H)-pyrimidinyl]-4-fluorophenyl}imino}-4-oxo-5-[(phenylcarbamoyl)-methyl]-3-thiazolidineacetate]
Preemergence herbicidal rating ECHCG (ECHCG (Barnyardgrass); rate 0.0156 kg/ha): 0.0
Preemergence herbicidal rating ECHCG (ECHCG (Barnyardgrass); rate 0.0313 kg/ha): 0.0
Preemergence herbicidal rating ECHCG (ECHCG (Barnyardgrass); rate 0.0625 kg/ha): 0.0
Preemergence herbicidal rating ECHCG (ECHCG (Barnyardgrass); rate 0.1250 kg/ha): 0.0
Preemergence herbicidal rating ECHCG (ECHCG (Barnyardgrass); rate 0.2500 kg/ha): 1.0
Preemergence herbicidal rating GLXMAW ([1]; rate 0.0156 kg/ha): 0.0
Preemergence herbicidal rating GLXMAW ([1]; rate 0.0313 kg/ha): 0.0
Preemergence herbicidal rating GLXMAW ([1]; rate 0.0625 kg/ha): 0.0
Preemergence herbicidal rating GLXMAW ([1]; rate 0.1250 kg/ha): 1.0
Preemergence herbicidal rating GLXMAW ([1]; rate 0.2500 kg/ha): 1.0
Preemergence herbicidal rating GALAP (GALAP (Galium); rate 0.0156 kg/ha): 0.0
Preemergence herbicidal rating GALAP (GALAP (Galium); rate 0.0313 kg/ha): 0.0
Preemergence herbicidal rating GALAP (GALAP (Galium); rate 0.0625 kg/ha): 0.0
Preemergence herbicidal rating GALAP (GALAP (Galium); rate 0.1250 kg/ha): 0.0
Preemergence herbicidal rating GALAP (GALAP (Galium); rate 0.2500 kg/ha): 0.0
Herbicidal rating MOOVA (MOOVA (Monochoria); Rate 0.0313 kg/ha): 3.0
Herbicidal rating MOOVA (MOOVA (Monochoria); Rate 0.0625 kg/ha): 9.0
Herbicidal rating MOOVA (MOOVA (Monochoria); Rate 0.1250 kg/ha): 9.0
Herbicidal rating MOOVA (MOOVA (Monochoria); Rate 0.2500 kg/ha): 9.0
IPOHE herbicidal rating ([2]; rate 0.0158 kg/ha): 9.0
IPOHE herbicidal rating ([2]; rate 0.0315 kg/ha): 9.0
IPOHE herbicidal rating ([2]; rate 0.0630 kg/ha): 9.0
CHEAL herbicidal rating ([3]; rate 0.0158 kg/ha): 4.0
CHEAL herbicidal rating ([3]; rate 0.0315 kg/ha): 7.0
CHEAL herbicidal rating ([3]; rate 0.0630 kg/ha): 7.0

C=CCN1C(=O)C(CC(=O)NS(C)(=O)=O)SC1=Nc1cc(-n2c(=O)cc(C(F)(F)F)n(C)c2=O)c(F)cc1Cl (stereo not shown) [Compound 96, 3-Allyl-2-{{2-chloro-5-[3,6-dihydro-3-methyl-2,6-dioxo-4-(trifluoromethyl)-1(2H)-pryimidinyl]-4-fluorophenyl}imino}-N-(methylsulfonyl)-4-oxo-5-thiazolidineacetamide]
ECHCG rating (ECHCG (Barnyardgrass); 0.0313 kg/ha): 0.0
ECHCG rating (ECHCG (Barnyardgrass); 0.0625 kg/ha): 0.0
ECHCG rating (ECHCG (Barnyardgrass); 0.1250 kg/ha): 0.0
ECHCG rating (ECHCG (Barnyardgrass); 0.2500 kg/ha): 1.0
ECHCG rating (ECHCG (Barnyardgrass); 0.5000 kg/ha): 1.0
GLXMAW rating ([1]; 0.0313 kg/ha): 0.0
GLXMAW rating ([1]; 0.0625 kg/ha): 0.0
GLXMAW rating ([1]; 0.1250 kg/ha): 0.0
GLXMAW rating ([1]; 0.2500 kg/ha): 3.0
GLXMAW rating ([1]; 0.5000 kg/ha): 4.0
GALAP rating (GALAP (Galium); 0.0313 kg/ha): 0.0
GALAP rating (GALAP (Galium); 0.0625 kg/ha): 2.0
GALAP rating (GALAP (Galium); 0.1250 kg/ha): 2.0
GALAP rating (GALAP (Galium); 0.2500 kg/ha): 6.0
GALAP rating (GALAP (Galium); 0.5000 kg/ha): 7.0
Herbicidal rating MOOVA (MOOVA (Monochoria); Rate 0.0313 kg/ha): 2.0
Herbicidal rating MOOVA (MOOVA (Monochoria); Rate 0.0625 kg/ha): 2.0
Herbicidal rating MOOVA (MOOVA (Monochoria); Rate 0.1250 kg/ha): 3.0
Herbicidal rating MOOVA (MOOVA (Monochoria); Rate 0.2500 kg/ha): 3.0
IPOHE herbicidal rating ([2]; rate 0.0156 kg/ha): 6.0
IPOHE herbicidal rating ([2]; rate 0.0313 kg/ha): 9.0
IPOHE herbicidal rating ([2]; rate 0.0625 kg/ha): 9.0
IPOHE herbicidal rating ([2]; rate 0.1250 kg/ha): 9.0
CHEAL herbicidal rating ([3]; rate 0.0156 kg/ha): 2.0
CHEAL herbicidal rating ([3]; rate 0.0313 kg/ha): 2.0

CN1C(=O)C(CC(=O)NS(=O)(=O)c2ccccc2)SC1=Nc1cc(-n2c(=O)cc(C(F)(F)F)n(C)c2=O)c(F)cc1Cl (stereo not shown) [Compound 102, 2-{{2-Chloro-5-[3,6-dihydro-3-methyl-2,6-dioxo-4-(trifluoromethyl)-1(2H)-pyrimidinyl]-4-fluorophenyl}imino}-3-methyl-4-oxo-N-(phenylsulfonyl)-5-thiazolidineacetamide]
ECHCG rating (ECHCG (Barnyardgrass); 0.0156 kg/ha): 0.0
ECHCG rating (ECHCG (Barnyardgrass); 0.0313 kg/ha): 0.0
ECHCG rating (ECHCG (Barnyardgrass); 0.0625 kg/ha): 0.0
ECHCG rating (ECHCG (Barnyardgrass); 0.2500 kg/ha): 0.0
ECHCG rating (ECHCG (Barnyardgrass); 0.5000 kg/ha): 0.0
GLXMAW rating ([1]; 0.0156 kg/ha): 0.0
GLXMAW rating ([1]; 0.0313 kg/ha): 0.0
GLXMAW rating ([1]; 0.0625 kg/ha): 0.0
GLXMAW rating ([1]; 0.2500 kg/ha): 1.0
GLXMAW rating ([1]; 0.5000 kg/ha): 4.0
GALAP rating (GALAP (Galium); 0.0156 kg/ha): 0.0
GALAP rating (GALAP (Galium); 0.0313 kg/ha): 1.0
GALAP rating (GALAP (Galium); 0.0625 kg/ha): 0.0
GALAP rating (GALAP (Galium); 0.2500 kg/ha): 1.0
GALAP rating (GALAP (Galium); 0.5000 kg/ha): 4.0
Herbicidal rating MOOVA (MOOVA (Monochoria); Rate 0.2500 kg/ha): 0.0
Herbicidal rating MOOVA (MOOVA (Monochoria); Rate 0.5000 kg/ha): 4.0
Herbicidal rating IPOHE ([2]; rate 0.0156 kg/ha): 9.0
Herbicidal rating IPOHE ([2]; rate 0.0313 kg/ha): 9.0
Herbicidal rating IPOHE ([2]; rate 0.0625 kg/ha): 9.0
Herbicidal rating IPOHE ([2]; rate 0.1250 kg/ha): 9.0
Herbicidal rating CHEAL ([3]; rate 0.0156 kg/ha): 3.0
Herbicidal rating CHEAL ([3]; rate 0.0313 kg/ha): 4.0
Herbicidal rating CHEAL ([3]; rate 0.0625 kg/ha): 6.0
Herbicidal rating CHEAL ([3]; rate 0.1250 kg/ha): 7.0

Reference: patent US20020137929A1, “1 - (3-heterocyclylphenyl) isothiourea, -isourea, -guanidine and -amidine herbicidal agents” (Intellectual Property Department, BASF Aktiengesellschaft, priority 1998, published 2002)
